One experiment deals with CT26 tumor cells. Nature of the experiment: Anti-tumor vaccination: treated dying CT26 cells injected s.c., challenge with live tumor cells in opposite flank. The format is in vivo, BALB/c mice.
The test system of another experiment is CRT. Put plainly: Fluorescence detection of cell surface CRT (cytofluorometry). The conditions noted are these: for time after treatment at which CRT exposure is detectable: intact cells; for CRT exposure at cell surface: CT26 cells, agent alone; for CRT exposure of cells treated with etoposide plus inhibitor: in combination with etoposide.
Experiment [1] has as its system ERP57. Nature of the experiment: Fluorescence detection of cell surface ERP57 (cytofluorometry). The format is cell-based, mouse. The note with it: for time after treatment at which ERP57 exposure is detectable: intact cells; for ERP57 exposure at cell surface: CT26 cells, agent alone; for ERP57 exposure of cells treated with etoposide plus inhibitor: in combination with etoposide. The method, then: CT26 cells (on a glass slide or in 12-well plates) were first washed with FACS buffer (1×PBS, 5% fetus bovine serum, and 0.1% sodium azide) and then incubated with rabbit anti-mouse CRT antibody (1:100, Stressgen), or rabbit anti-mouse ERP57 antibody (abcam) in FACS buffer at 4° C. for 30 min. Cells reacted with anti-rabbit IgG (H+L) Alexa fluor 488-conjugates (1:500) in FACS buffer at 4° C. for 30 min. After washing three times with FACS buffer, surface CRT and ERP57 was detected by cytofluorometric analysis on a FACS Vantage. In some experiments, cells were fixed with 4% paraformaldehyde, counterstained with Hoechst (2 μM; Sigma), followed by fluorescence microscopic assessment.

The test system of another experiment is CT26 tumors. Put plainly: Treatment of established CT26 tumors by single intratumoral injection. The class given is in vivo, BALB/c mice. How it is done:
All animals were maintained in specific pathogen-free conditions and all experiments followed the FELASA guidelines. 3×10^6 treated CT26 cells were inoculated s.c. in […] of PBS into BALB/c six-week-old female mice, into the lower flank, while 5×10^5 untreated control cells were inoculated into the contralateral flank. For the tumorigenicity assay, 3×10^6 treated or untreated CT26 cells were injected s.c. into nu/nu mice. To assess the specificity of the immune response against CT26, injections of either 5×10^5 or 5×10^6 of CT26 were made (for the mice immunized in a standard protocol or vaccination protocol, respectively). Tumors were evaluated weekly, using a caliper. In a series of experiments, BALB/c (wild type or nu/nu) carrying palpable CT26 tumors (implanted 14 days before for wild type or 7 days before for nu/nu mice by injection of […] tumor cells) received a single intratumoral injection of […] PBS containing the same concentration of anti-cancer agents and PP1/GADD34 inhibitors as those used in vitro, as well as rCRT ([…]). For the assessment of local immune response, 3×10^5 cells were injected in 50 μl into the footpad of mice. Five days later, mice were sacrificed and the draining lymph nodes were harvested. 1×10^5 lymph node cells were cultured for 4 days alone or with 1×10^4 CT26 cells killed by a freeze-thaw cycle in 200 μl in round-bottom 96-well plates. IFN-γ was determined by ELISA.

For experiment [2], the system named is ERP57. Put plainly: Fluorescence detection of cell surface ERP57 (cytofluorometry). The format is cell-based, mouse. The note with it: murine MCA205, B16F10, J558; human HeLa, A549, HCT116.
The mark [3] stands for this setting: CT26 cells treated in vitro with agent alone, immunocompetent BALB/c mice.
Where [4] appears, read: pre-incubation for 1 h with the inhibitor.
The mark [5] stands for this setting: agent alone, immunocompetent BALB/c mice, 14-day-old CT26 tumors.
Setting [6] is: agent alone, immunodeficient nu/nu mice.
The mark [7] stands for this setting: immunodeficient (athymic) animals.

“Also recorded” adds a separate entry of the source. Non-standard residues stand in square brackets, D forms with d. Residues, ends and D or L forms follow the SMILES beside them. *: point of attachment. Nle = CCCC[C@H](N)C(=O)O; Cbz = O=C(OCc1ccccc1)*; CH2F = FC*

Experimental for CRT: CT26 cells (on a glass slide or in 12-well plates) were first washed with FACS buffer (1×PBS, 5% fetus bovine serum, and 0.1% sodium azide) and then incubated with rabbit anti-mouse CRT antibody (1:100, Stressgen), or rabbit anti-mouse ERP57 antibody (abcam) in FACS buffer at 4° C. for 30 min. […] After washing three times with FACS buffer, surface CRT and ERP57 was detected by cytofluorometric analysis on a FACS Vantage. In some experiments, cells were fixed with 4% paraformaldehyde, counterstained with Hoechst (2 μM; Sigma), followed by fluorescence microscopic assessment.
Trypsinized CT26 cells were enucleated as described. Briefly, cells were treated in 2 ml of complete RPMI medium containing cytochalasin B (10 μg/ml; Sigma) and DNase I (80 U/ml; Sigma). […] Gradients containing cell suspensions were centrifugated in a prewarmed SW41 Beckman rotor at 25 000 rpm for 20 minutes at 30° C. […] Then the cell surface CRT was detected (see materials and methods) and the viability was determined by with propidium iodine staining (2 μg/ml, Sigma) for 5 min followed by cytofluorometric analysis.

For the molecule `CC(=O)N[C@@H](CSC(=O)[C@]1([C@@H](O)C(C)C)NC(=O)[C@H](C)[C@@H]1O)C(=O)O` [loctacystin], the “immunogenicity of cell death (protection against tumor growth on rechallenge)” value (from here on “immunogenicity of cell death”) in the experiment on CT26 tumor cells (setting [3]) is given as “failed to induce immunogenic apoptosis”.
For `O=C1[O][Pt]2([NH][C@@H]3CCCC[C@H]3[NH]2)[O]C1=O` [oxaliplatin], in the experiment with CRT, the “time after treatment at which CRT exposure is detectable” value worked out at 1 h. For the same molecule, in the experiment on ERP57 [1], the “time after treatment at which ERP57 exposure is detectable” value came to 1 h.
With `C/C=C(/C)C(=O)O[C@H]1C(C)=C2[C@H]([C@@H]1OC(=O)CCCCCCC)[C@@](C)(OC(C)=O)C[C@H](OC(=O)CCC)[C@@]1(O)[C@H]2OC(=O)[C@@]1(C)O` [thapsigargin], the “immunogenicity of cell death” value with CT26 tumor cells (setting [3]) was “failed to induce immunogenic apoptosis”.
`CC(C)C[C@@H](C=O)NC(=O)[C@H](CC(C)C)NC(=O)[C@H](CC(C)C)NC(=O)OCc1ccccc1` [MG132] (Cbz-Leu-Leu-Leu-aldehyde): in the experiment with CT26 tumor cells (setting [3]), the “immunogenicity of cell death” value is on record as “failed to induce immunogenic apoptosis”.
Regarding `COC(=O)C[C@H](NC(=O)[C@H](C)NC(=O)[C@@H](NC(=O)OCc1ccccc1)C(C)C)C(=O)CF` [Z-VAD-fmk] (Cbz-Val-Ala-Asp(OMe)-CH2F), the “effect on immunogenicity of doxorubicin-elicited cell death” value in the experiment with CT26 tumor cells (combined with doxorubicin) was “reduces the immunogenicity of doxorubicin-elicited cell death”.
On to `CC(=O)O[C@H]1C(=O)[C@@]2(C)[C@H]([C@H](OC(=O)c3ccccc3)[C@]3(O)C[C@H](OC(=O)[C@H](O)[C@@H](NC(=O)c4ccccc4)c4ccccc4)C(C)=C1C3(C)C)[C@]1(OC(C)=O)CO[C@@H]1C[C@@H]2O` [paclitaxel], for which the “time after treatment at which CRT exposure is detectable” value with CRT amounted to 1 h. Besides, the “time after treatment at which ERP57 exposure is detectable” value in the experiment with ERP57 [1] was 1 h.
In the case of `C/C1=C/C(=O)O[C@@H]2C[C@@H](CC[C@H](C)/C=C\C=C\CC1)O[C@@](O)([C@@H]1CSC(=O)N1)C2` [latrunculin A], the “effect on CRT exposure induced by anthracyclines and PP1/GADD34 inhibitors” value in the experiment with CRT (setting [4]) is on record as “abolished”. Further, the “effect on ERP57 exposure induced by anthracyclines and PP1/GADD34 inhibitors” value with ERP57 [1] (setting [4]) is listed as “abolished”.
Turning to `CCOc1ccc(-c2nc3ccc(-c4nc5ccc(N6CCN(C)CC6)cc5[nH]4)cc3[nH]2)cc1` [Hoechst 33342], the “immunogenicity of cell death” value in the experiment with CT26 tumor cells (setting [3]) is “failed to induce immunogenic apoptosis”.
`C[C@H]1CCC/C=C/[C@@H]2C[C@H](O)C[C@H]2[C@H](O)/C=C/C(=O)O1` [brefeldin]: the “immunogenicity of cell death” value with CT26 tumor cells (setting [3]) is recorded as “failed to induce immunogenic apoptosis”.
As for arsenite, in the experiment on CT26 tumor cells (mouse, in vivo), the “immunogenicity of cell death” value is “failed to induce immunogenic apoptosis”.
As for `CO[C@@]12[C@H](COC(N)=O)C3=C(C(=O)C(C)=C(N)C3=O)N1C[C@@H]1N[C@@H]12` [mitomycin C], the “immunogenicity of cell death” value with CT26 tumor cells (setting [3]) is “failed to induce immunogenic apoptosis”. Besides, the “therapeutic effect of single intratumoral injection” value in the experiment with CT26 tumors (mouse, in vivo) is recorded as “no major therapeutic effect”.
Turning to `CCCCCCCCCCCCC/C=C/[C@@H](O)[C@H](CO)NC(=O)CCCCCCCCCCCCCCC` [C16-ceramide], the “time after treatment at which CRT exposure is detectable” value in the experiment on CRT was 1 h. Also, the “time after treatment at which ERP57 exposure is detectable” value in the experiment with ERP57 [1] amounted to 1 h.
Consider `O=C(/C=C/c1ccccc1)NC(NC(=S)Nc1cccc2cccnc12)C(Cl)(Cl)Cl` (centres unmarked) [salubrinal], for which, in the experiment with CRT, the “CRT exposure at cell surface” value is on record as “efficiently induced” and the “CRT exposure of cells treated with etoposide plus inhibitor” value is on record as “greatly enhanced”. Besides, in the experiment on CRT (murine MCA205, B16F10, J558, human HeLa, A549, HCT116), the “CRT exposure on panel of tumor cell lines” value is listed as “induced”. The “immunogenicity of cell death” value with CT26 tumor cells (setting [3]) is on record as “not sufficient to induce immunogenic cell death”. Further, the “immunogenic potential of cells succumbing to etoposide or mitomycin C” value in the experiment with CT26 tumor cells (inhibitor combined with etoposide or mitomycin C) is listed as “greatly enhanced”. Further, in the experiment on CT26 tumors (setting [5]), the “therapeutic effect of single intratumoral injection” value was “no major therapeutic effect”. The “therapeutic effect of single intratumoral injection” value in the experiment on CT26 tumors (setting [6]) is listed as “no major therapeutic effect”. The “therapeutic effect of intratumoral injection combined with etoposide or mitomycin C” value with CT26 tumors (immunocompetent animals) is “stable disease or complete tumor regression”. For the same molecule, the “therapeutic effect of intratumoral injection combined with etoposide or mitomycin C” value in the experiment with CT26 tumors (setting [7]) was “not in athymic”. Besides, in the experiment with ERP57 [2], the “ERP57 exposure on panel of tumor cell lines” value is recorded as “induced”. Besides, in the experiment with ERP57 [1], the “ERP57 exposure at cell surface” value is “efficiently induced” and the “ERP57 exposure of cells treated with etoposide plus inhibitor” value is recorded as “greatly enhanced”.
With `CCCC[C@@H](C=O)NC(=O)[C@H](CC(C)C)NC(=O)[C@H](CC(C)C)NC(C)=O` [ALLN] (Ac-Leu-Leu-[Nle]-aldehyde), in the experiment on CT26 tumor cells (setting [3]), the “immunogenicity of cell death” value is “failed to induce immunogenic apoptosis”.
As to `COc1cc([C@@H]2c3cc4c(cc3[C@@H](O[C@@H]3O[C@@H]5CO[C@@H](C)O[C@H]5[C@H](O)[C@H]3O)[C@H]3COC(=O)[C@H]23)OCO4)cc(OC)c1O` [etoposide], the “immunogenicity of cell death” value with CT26 tumor cells (setting [3]) was “failed to induce immunogenic apoptosis; also recorded: poorly immunogenic”. The “therapeutic effect of single intratumoral injection” value in the experiment on CT26 tumors (setting [5]) and in the experiment on CT26 tumors (setting [6]) was “no major therapeutic effect” each time.
Regarding tunicamycin, the “immunogenicity of cell death” value in the experiment on CT26 tumor cells (setting [3]) was “failed to induce immunogenic apoptosis”.
Turning to `CO[C@H]([C@H](O)CC(=O)[C@@H](C)[C@@H](O)CC[C@@H](C)[C@@H]1O[C@]2(CC[C@@H](C)[C@H](CC[C@H](C)C(C)=O)O2)CC[C@@H]1C)[C@H](OC(=O)C[C@@H](O)C1=C(C)C(=O)OC1=O)C(C)C` [tautomycin], in the experiment on CRT, the “CRT exposure at cell surface” value is on record as “efficiently induced” and the “CRT exposure of cells treated with etoposide plus inhibitor” value is listed as “greatly enhanced”. For the same molecule, the “immunogenicity of cell death” value in the experiment with CT26 tumor cells (setting [3]) is “not sufficient to induce immunogenic cell death”. Also, in the experiment with CT26 tumor cells (mouse, in vivo), the “immunogenic potential of cells succumbing to etoposide or mitomycin C” value is given as “greatly enhanced”. Also, the “therapeutic effect of single intratumoral injection” value in the experiment on CT26 tumors (setting [5]) is “no major therapeutic effect”. For the same molecule, the “therapeutic effect of single intratumoral injection” value with CT26 tumors (setting [6]) is listed as “no major therapeutic effect”. The “therapeutic effect of intratumoral injection combined with etoposide or mitomycin C” value in the experiment on CT26 tumors (immunocompetent animals) was “stable disease or complete tumor regression”. Besides, the “therapeutic effect of intratumoral injection combined with etoposide or mitomycin C” value in the experiment on CT26 tumors (setting [7]) is reported as “not in athymic”. In the experiment with ERP57 [1], the “ERP57 exposure at cell surface” value is on record as “efficiently induced” and the “ERP57 exposure of cells treated with etoposide plus inhibitor” value is “greatly enhanced”.
Turning to `CC(=O)[C@]1(O)Cc2c(O)c3c(c(O)c2[C@@H](O[C@H]2C[C@H](N)[C@H](O)[C@H](C)O2)C1)C(=O)c1ccccc1C3=O` [idarubicin], the “time after treatment at which CRT exposure is detectable” value in the experiment with CRT amounted to 1 h. Moreover, the “immunogenicity of cell death” value with CT26 tumor cells (setting [3]) is reported as “elicited immunogenic cell death”.
As to `CC(=O)O[C@@]12CO[C@@H]1C[C@H](O)[C@@]1(C)C(=O)[C@H](O)C3=C(C)[C@@H](OC(=O)[C@H](O)[C@@H](NC(=O)OC(C)(C)C)c4ccccc4)C[C@@](O)([C@@H](OC(=O)c4ccccc4)[C@H]21)C3(C)C` [taxotere, Docetaxel], the “time after treatment at which CRT exposure is detectable” value with CRT was 1 h. For the same molecule, the “time after treatment at which ERP57 exposure is detectable” value in the experiment on ERP57 [1] stood at 1 h.
For `CCCCCCCCCCCCC/C=C/[C@@H](O)[C@H](CO)NC(C)=O` [C2 ceramide], the “immunogenicity of cell death” value in the experiment on CT26 tumor cells (setting [3]) was “failed to induce immunogenic apoptosis”.
For the molecule `CC[C@@]1(O)C(=O)OCc2c1cc1n(c2=O)Cc2cc3ccccc3nc2-1` [camptothecin], in the experiment on CT26 tumor cells (setting [3]), the “immunogenicity of cell death” value is on record as “failed to induce immunogenic apoptosis”.
